Here are results for 29 compounds from patent publication US20250346597A1, “CONDENSED HETEROCYCLIC COMPOUNDS AS INHIBITOR OF DIACYLGLYCEROL KINASES” (BEONE MEDICINES I GMBH, priority 2023, published 2025).

Some results are limits rather than exact numbers.

One assay addresses DGKα (Homo sapiens (Human), UniProt P23743). Briefly: Biochemical DGK IC50 assay (ADP-Glo, lipid micelle substrate), DGKα. Also: full length DGKα 7.5 nM. Conditions: full length DGKα […], ATP 140 μM, DAG 80 μM. As for the experimental part: (§1) Enzymatic reactions of DGKζ, DGKα and DGKδ were performed using ADP-Glo assay with lipid micelle substrate. […] Full length DGKα (D21-10BG, SignalChem) and full length DGKδ (D23-10G, SignalChem) were purchased. Lipid micelle was prepared by dissolving DAG (Sigma, 317505-10MG) and PS (Sigma, P7769-100MG) with chloroform which was furtherly removed by rotary evaporation. The resulted product was resuspended in buffer containing 25 mM HEPES pH 7.0, 0.5 mM EDTA and 160 mM Octyl P-D glucopyranoside by vigorous mixing and ultrasonic (IID, Scientz).
(§2) The inhibition activities testing for the compound disclosed herein were carried out at room temperature in assay buffer containing 50 mM HEPES, 10 mM MgCl2, 0.01% BSA, 0.1 mM Na3VO4, 0.005% Tween-20 and 0.01 mM CaCl2. Compounds in DMSO were dispensed into wells of a black 384 well plate (Corning 4514) using D300e digital dispenser (Tecan). […] 3 μL 2× enzyme solution was added to wells. […] After 1 hour reaction, 5 μL ADP-Glo reagent (Promga V9101) was added and incubated for 40 minutes. 10 μL Kinase Detection reagent was added and incubated for 30 minutes. Luminescence was measured on a microplate reader (PHERAstar FSX, BMG labtech). The IC50s are calculated based on inhibition of enzyme activity in the presence of increasing concentrations of compounds.
On the technique in general: ADP-Glo first removes unused ATP, then detects ADP through luciferase.

The target in another assay is DGKζ (Homo sapiens (Human), UniProt Q13574). Briefly: Biochemical DGK IC50 assay (ADP-Glo, lipid micelle substrate), DGKζ. Conditions: full length DGKζ 0.5 nM, ATP 140 μM, DAG 80 μM. As for the experimental part: as §1, §2
Human His-TEV-DGK-zeta-pFastBac1 and human baculovirus samples was generated using the Bac-to-Bac baculovirus expression system (Invitrogen) according to the manufacturer's protocol. The DNA used for expression of DGK-zeta, have SEQ ID Nos: 1. Baculovirus amplification was achieved using infected SF9 cells at 1:2000 virus/cells ratios, and grown for 96 hours at 27° C. post-transfected.
The expression scaled up for each protein was carried out in the […] from CORNING. 4 L of 3×10^6 cells/mL Sf9 cells (Expression System, Invitrogen) grown in SF900™ II SFM insect medium (Expression System) was infected with virus stock at 1:200 virus/cells ratio, and grown for 48 hours at 27° C. post-transfection. The infected cell culture was harvested by centrifugation at 6000 rpm for 15 min 4° C. in a SORVALL LYNX6000 centrifuge. The cell pellets were stored at −80° C.
Full length human DGKζ produced as described above, was purified from Sf9 baculovirus-infected insect cell paste. The cells were lysed using sonication method, and the lysates were clarified by centrifugation.

Sequence of DGKζ (Q13574 other isoform, or with tags, fused parts or gaps): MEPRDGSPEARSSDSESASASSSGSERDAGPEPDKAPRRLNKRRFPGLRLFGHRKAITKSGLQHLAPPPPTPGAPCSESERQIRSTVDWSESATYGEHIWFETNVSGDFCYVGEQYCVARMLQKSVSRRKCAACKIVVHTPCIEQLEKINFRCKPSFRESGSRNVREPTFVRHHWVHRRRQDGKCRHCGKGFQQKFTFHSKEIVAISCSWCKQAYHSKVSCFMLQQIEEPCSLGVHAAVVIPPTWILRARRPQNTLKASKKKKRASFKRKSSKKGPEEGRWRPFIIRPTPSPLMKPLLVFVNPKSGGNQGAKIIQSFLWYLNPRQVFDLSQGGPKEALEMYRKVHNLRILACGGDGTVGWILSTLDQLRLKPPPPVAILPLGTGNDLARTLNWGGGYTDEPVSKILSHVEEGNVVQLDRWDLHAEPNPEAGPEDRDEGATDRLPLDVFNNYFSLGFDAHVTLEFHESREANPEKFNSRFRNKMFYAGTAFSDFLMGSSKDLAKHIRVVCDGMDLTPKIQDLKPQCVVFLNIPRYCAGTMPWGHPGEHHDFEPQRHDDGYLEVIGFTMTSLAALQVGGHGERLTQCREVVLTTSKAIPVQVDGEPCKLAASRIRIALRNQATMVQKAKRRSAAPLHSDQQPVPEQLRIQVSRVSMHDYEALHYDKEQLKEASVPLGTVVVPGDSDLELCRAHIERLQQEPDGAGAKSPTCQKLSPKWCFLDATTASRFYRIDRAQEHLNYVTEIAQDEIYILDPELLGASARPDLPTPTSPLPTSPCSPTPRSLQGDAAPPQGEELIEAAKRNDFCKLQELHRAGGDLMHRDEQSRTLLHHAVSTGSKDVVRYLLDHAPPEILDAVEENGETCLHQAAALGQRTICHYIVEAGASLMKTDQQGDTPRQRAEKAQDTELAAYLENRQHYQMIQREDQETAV
Sequence of DGKα (P23743 whole entry): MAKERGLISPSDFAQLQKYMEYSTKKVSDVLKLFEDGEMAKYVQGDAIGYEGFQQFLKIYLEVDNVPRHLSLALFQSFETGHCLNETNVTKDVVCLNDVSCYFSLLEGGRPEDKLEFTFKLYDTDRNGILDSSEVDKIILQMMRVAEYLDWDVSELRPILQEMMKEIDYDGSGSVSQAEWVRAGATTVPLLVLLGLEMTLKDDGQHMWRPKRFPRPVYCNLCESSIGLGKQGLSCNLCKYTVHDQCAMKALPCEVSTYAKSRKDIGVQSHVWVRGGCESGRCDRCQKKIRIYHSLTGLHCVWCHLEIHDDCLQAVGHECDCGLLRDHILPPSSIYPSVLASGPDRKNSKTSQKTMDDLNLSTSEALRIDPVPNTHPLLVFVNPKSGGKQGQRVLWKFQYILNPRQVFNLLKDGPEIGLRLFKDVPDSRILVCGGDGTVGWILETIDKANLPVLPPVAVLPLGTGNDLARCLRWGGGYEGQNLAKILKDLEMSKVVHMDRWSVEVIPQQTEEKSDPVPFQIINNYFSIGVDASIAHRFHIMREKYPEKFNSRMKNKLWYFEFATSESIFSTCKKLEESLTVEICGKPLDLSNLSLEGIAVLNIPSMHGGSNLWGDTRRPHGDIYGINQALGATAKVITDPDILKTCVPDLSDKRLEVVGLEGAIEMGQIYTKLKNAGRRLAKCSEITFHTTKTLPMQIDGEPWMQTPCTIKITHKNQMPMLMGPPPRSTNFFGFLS

What is called IC50 is the concentration at which inhibition is half-maximal. Higher therefore signals lower potency. As for `CC[C@H]1CN(C(C)c2ccc(C(=O)N3CC(OC)C3)cc2)[C@H](CC)CN1c1cc(=O)n(C)c2cn(CC#N)nc12` (single isomer, unassigned) [Compound A1a], the 50% inhibitory concentration (IC50) is 23 nM against DGKα and 1440 nM at DGKζ. On the same counts, the results for `CC[C@H]1CN(C(C)c2ccc(C(=O)N3CC(OC)C3)cc2)[C@H](CC)CN1c1cc(=O)n(C)c2cn(CC#N)nc12` (single isomer, unassigned) [Compound A1b] are 734 nM and above 10000 nM. The matching figures for `CC[C@H]1CN(C(C)c2cc(F)c(C(=O)N(C)C)c(F)c2)[C@H](CC)CN1c1cc(=O)n(C)c2cn(CC#N)nc12` (single isomer, unassigned) [Compound A3a]: 13600 nM and 227 nM.

On to `CC[C@H]1CN(C(C)c2cc(F)c(C(=O)N(C)C)c(F)c2)[C@H](CC)CN1c1cc(=O)n(C)c2cn(CC#N)nc12` (single isomer, unassigned) [Compound A3b], for which the half-maximal inhibitory concentration (IC50) at DGKα is 5900 nM; at DGKζ, 551 nM. On the same counts, the results for `CC[C@H]1CN(C(C)c2ccc(C(=O)N(C)C)c(F)c2)[C@H](CC)CN1c1cc(=O)n(C)c2cn(CC#N)nc12` (single isomer, unassigned) [Compound A4a] are 2690 nM and 569 nM.

As to `CC[C@H]1CN(C(C)c2ccc(C(=O)N(C)C)c(F)c2)[C@H](CC)CN1c1cc(=O)n(C)c2cn(CC#N)nc12` (single isomer, unassigned) [Compound A4b], the IC50 against DGKα is 4840 nM; against DGKζ it was 3170 nM. For `CC[C@H]1CN(C(C)c2ccc(OC(C)C)cn2)[C@H](CC)CN1c1cc(=O)n(C)c2cn(CC#N)nc12` (single isomer, unassigned) [Compound A5la], the IC50 against DGKα was determined as 26 nM; against DGKζ, 138 nM. On the same counts, the results for `CC[C@H]1CN(C(C)c2ccc(OC(F)F)cc2)[C@H](CC)CN1c1cc(=O)n(C)c2cn(CC#N)nc12` (single isomer, unassigned) [Compound A19a] are 22 nM and 130 nM. On the same counts, the results for `CC[C@H]1CN(C(C)c2ccc(OC(F)F)cc2)[C@H](CC)CN1c1cc(=O)n(C)c2cn(CC#N)nc12` (single isomer, unassigned) [Compound A19b] are 289 nM and 4900 nM. The matching figures for `CC[C@H]1CN(C(C)c2ccc(OC3COC3)c(C)c2)[C@H](CC)CN1c1cc(=O)n(C)c2cn(CC#N)nc12` (single isomer, unassigned) [Compound A21a]: 2890 nM and 1470 nM.

Regarding `CC[C@H]1CN(C(C)c2ccc(OC3COC3)c(C)c2)[C@H](CC)CN1c1cc(=O)n(C)c2cn(CC#N)nc12` (single isomer, unassigned) [Compound A21b], the values for the IC50 on DGKα and against DGKζ were above 150000 nM and above 10000 nM, respectively. With `CC[C@H]1CN(C(C)c2ccc(OC3COC3)c(F)c2)[C@H](CC)CN1c1cc(=O)n(C)c2cn(CC#N)nc12` (single isomer, unassigned) [Compound A23a], the concentration for half-maximal inhibition (IC50) at DGKα stood at 2350 nM; on DGKζ it was 3740 nM. The matching figures for `CC[C@H]1CN(C(C)c2ccc(OC3COC3)c(F)c2)[C@H](CC)CN1c1cc(=O)n(C)c2cn(CC#N)nc12` (single isomer, unassigned) [Compound A23b]: 138 nM and 534 nM. The matching figures for `CC[C@H]1CN(C(C)c2cc(F)c(CN(C)C)c(F)c2)[C@H](CC)CN1c1cc(=O)n(C)c2cn(CC#N)nc12` (single isomer, unassigned) [Compound A25a]: 3380 nM and 246 nM. Regarding `CC[C@H]1CN(C(C)c2cc(F)c(CN(C)C)c(F)c2)[C@H](CC)CN1c1cc(=O)n(C)c2cn(CC#N)nc12` (single isomer, unassigned) [Compound A25b], the IC50 on DGKα is 6020 nM; against DGKζ it was 2200 nM. On the same counts, the results for `CC[C@H]1CN(C(C)c2ccc(CN3CCCC3)cc2)[C@H](CC)CN1c1cc(=O)n(C)c2cn(CC#N)nc12` (single isomer, unassigned) [Compound A26a] are 1440 nM and 4090 nM. The matching figures for `CC[C@H]1CN(C(C)c2ccc(CN3CCCC3)cc2)[C@H](CC)CN1c1cc(=O)n(C)c2cn(CC#N)nc12` (single isomer, unassigned) [Compound A26b]: 24700 nM and above 10000 nM. Take `CC[C@H]1CN(C(C)c2ccc(OC)cc2)[C@H](CC)CN1c1cc(=O)n(C)c2cn(CC#N)nc12` (single isomer, unassigned) [Compound A34a]: the concentration for half-maximal inhibition (IC50) on DGKα was 37 nM; on DGKζ it was 75 nM. The matching figures for `CC[C@H]1CN(C(C)c2ccc(OC)cc2)[C@H](CC)CN1c1cc(=O)n(C)c2cn(CC#N)nc12` (single isomer, unassigned) [Compound A34b]: 596 nM and 2940 nM. On the same counts, the results for `CC[C@H]1CN(C(C)c2nc(C)c(C)s2)[C@H](CC)CN1c1cc(=O)n(C)c2cn(CC#N)nc12` (single isomer, unassigned) [Compound A35a] are 131 nM and 234 nM. As for `CC[C@H]1CN(C(C)c2nc(C)c(C)s2)[C@H](CC)CN1c1cc(=O)n(C)c2cn(CC#N)nc12` (single isomer, unassigned) [Compound A35b], the half-maximal inhibitory concentration (IC50) against DGKα is above 150000 nM; on DGKζ, 2420 nM. In the case of `CC[C@H]1CN(C(C)c2nc3c(s2)CCCC3)[C@H](CC)CN1c1cc(=O)n(C)c2cn(CC#N)nc12` (single isomer, unassigned) [Compound A36a], the values for the IC50 against DGKα and against DGKζ were 164 nM and 57 nM, respectively.

Turning to `CC[C@H]1CN(C(C)c2nc3c(s2)CCCC3)[C@H](CC)CN1c1cc(=O)n(C)c2cn(CC#N)nc12` (single isomer, unassigned) [Compound A36b], the concentration for half-maximal inhibition (IC50) at DGKα came to 2110 nM; against DGKζ, 946 nM.

On to `CC[C@H]1CN(C(C)c2ccc(C3CC3)nc2)[C@H](CC)CN1c1cc(=O)n(C)c2cn(CC#N)nc12` (single isomer, unassigned) [Compound A38a], for which the concentration for half-maximal inhibition (IC50) against DGKα turned out to be 810 nM; on DGKζ it was 126 nM.

For the compound `CC[C@H]1CN(C(C)c2ccc(C3CC3)nc2)[C@H](CC)CN1c1cc(=O)n(C)c2cn(CC#N)nc12` (single isomer, unassigned) [Compound A38b], the IC50 against DGKα was 2350 nM; against DGKζ, 1180 nM. In the case of `CC#CCn1cc2c(n1)c(N1C[C@@H](CC)N(C(C)c3ccc(C4CC4)nc3)C[C@@H]1CC)cc(=O)n2C` (single isomer, unassigned) [Compound A39a], the IC50 at DGKα came to 33 nM; on DGKζ it was 464 nM.

`CC#CCn1cc2c(n1)c(N1C[C@@H](CC)N(C(C)c3ccc(C4CC4)nc3)C[C@@H]1CC)cc(=O)n2C` (single isomer, unassigned) [Compound A39b]: the IC50 stood at 237 nM against DGKα and 2360 nM at DGKζ. The matching figures for `CC[C@H]1CN(C(C)c2ccc(COC)nc2)[C@H](CC)CN1c1cc(=O)n(C)c2cn(CC#N)nc12` (single isomer, unassigned) [Compound A42a]: 1960 nM and 315 nM. In turn, `CC[C@H]1CN(C(C)c2ccc(N)nc2)[C@H](CC)CN1c1cc(=O)n(C)c2cn(CC#N)nc12` (single isomer, unassigned) [Compound A187b] displayed an IC50 at DGKα of 11900 nM.
